# Reference: ChEMBL document CHEMBL3044963, “Synthesis and in vitro anticancer activity of novel thiazacridine derivatives” (Med Chem Res, 2013)
# Legend:
# [1] = system: SF-295; experiment: Anticancer activity against Homo sapiens (human) SF295 cells assessed as inhibition of cell survival after 72 hr by MTT assay; format: functional, cell-based; conditions: SF-295, 72 h
# [2] = system: MDA-MB-435; experiment: Anticancer activity against Homo sapiens (human) MDA-MB-435 cells assessed as growth inhibition at 25 ug/ml after 72 hr by MTT assay; format: functional; conditions: MDA-MB-435, 72 h, read-out: GI
# [3] = system: HCT-8; experiment: Anticancer activity against Homo sapiens (human) HCT8 cells assessed as growth inhibition at 25 ug/ml after 72 hr by MTT assay; format: functional; conditions: HCT-8, 72 h, read-out: GI
# [4] = system: HL-60; experiment: Anticancer activity against Homo sapiens (human) HL60 cells assessed as inhibition of cell survival after 72 hr by MTT assay; format: functional, cell-based; conditions: HL-60, 72 h
# [5] = system: SF-295; experiment: Anticancer activity against Homo sapiens (human) SF295 cells assessed as growth inhibition at 25 ug/ml after 72 hr by MTT assay; format: functional; conditions: SF-295, 72 h, read-out: GI
# [6] = system: MDA-MB-435; experiment: Anticancer activity against Homo sapiens (human) MDA-MB-435 cells assessed as inhibition of cell survival after 72 hr by MTT assay; format: functional, cell-based; conditions: MDA-MB-435, 72 h
# [7] = system: HCT-8; experiment: Anticancer activity against Homo sapiens (human) HCT8 cells assessed as inhibition of cell survival after 72 hr by MTT assay; format: functional, cell-based; conditions: HCT-8, 72 h
# [8] = system: MDA-MB-435; experiment: Anticancer activity against Homo sapiens (human) MDA-MB-435 cells assessed as growth inhibition at 0.3 ug/ml after 72 hr by MTT assay; format: functional; conditions: MDA-MB-435, 72 h, read-out: GI
# [9] = system: SF-295; experiment: Anticancer activity against Homo sapiens (human) SF295 cells assessed as growth inhibition at 0.3 ug/ml after 72 hr by MTT assay; format: functional; conditions: SF-295, 72 h, read-out: GI
# [10] = system: HCT-8; experiment: Anticancer activity against Homo sapiens (human) HCT8 cells assessed as growth inhibition at 0.3 ug/ml after 72 hr by MTT assay; format: functional; conditions: HCT-8, 72 h, read-out: GI
Structure (SMILES),IC50 [1] [µg/mL],inhibition of growth at 25 µg/mL [2] [%],inhibition of growth at 25 µg/mL [3] [%],IC50 [4] [µg/mL],inhibition of growth at 25 µg/mL [5] [%],IC50 [6] [µg/mL],IC50 [7] [µg/mL],inhibition of growth at 0.3 µg/mL [8] [%],inhibition of growth at 0.3 µg/mL [9] [%],inhibition of growth at 0.3 µg/mL [10] [%]
O=C1S/C(=C\c2c3ccccc3nc3ccccc23)C(=O)N1Cc1c2ccccc2nc2ccccc12,4.44,95.9,92.4,> 25,76.7,7.01,4.45,,,
COc1ccc(/C=C2\SC(=O)N(Cc3c4ccccc4nc4ccccc34)C2=O)cc1,> 25,84.2,86.7,> 25,59.5,> 25,19.3,,,
O=C1S/C(=C\c2ccc(Br)cc2)C(=O)N1Cc1c2ccccc2nc2ccccc12,> 25,85.3,96.6,19.5,62.2,> 25,20.6,,,
CS(=O)(=O)c1ccc(/C=C2\SC(=O)N(Cc3c4ccccc4nc4ccccc34)C2=O)cc1,> 25,12.9,64.3,> 25,44.3,> 25,> 25,,,
O=C1S/C(=C\c2ccc(Cl)cc2)C(=O)N1Cc1c2ccccc2nc2ccccc12,> 25,0,37.8,> 25,31.3,> 25,> 25,,,
Cc1ccc(/C=C2\SC(=O)N(Cc3c4ccccc4nc4ccccc34)C2=O)cc1,> 25,31.2,51.3,> 25,29.9,> 25,> 25,,,
O=C1CSC(=O)N1Cc1c2ccccc2nc2ccccc12,> 25,0,42,> 25,32.8,> 25,> 25,,,
COc1cccc2c1C(=O)c1c(O)c3c(c(O)c1C2=O)C[C@@](O)(C(=O)CO)C[C@@H]3O[C@H]1C[C@H](N)[C@H](O)[C@H](C)O1 [DOXORUBICIN],0.48,,,,,0.24,,93.6,91.1,95.2
COc1ccc(/C=C2\SC(=O)N(Cc3c4ccccc4nc4ccccc34)C2=O)cc1Br,> 25,53,72.5,> 25,48,> 25,> 25,,,
